According to US10221138B2, “Biaryl derivatives as GPR120 agonists” (LG CHEM, LTD., priority 2013, dated 2019):

Each compound was assayed against T1, hGPR120 (Homo sapiens, UniProt Q5NUL3) (assay: Measurement of activity of GPR120 agonist (cell-based calcium fluorescence assay)). Conditions: CHO-K1 cells expressing Ga16 and hGPR120, Calcium 5 dye fluorescence; activity class; read-out: EC50.
T1 construct: expressed in transfected cells; host or cells: CHO-K1
T1 sequence (Q5NUL3 1-361): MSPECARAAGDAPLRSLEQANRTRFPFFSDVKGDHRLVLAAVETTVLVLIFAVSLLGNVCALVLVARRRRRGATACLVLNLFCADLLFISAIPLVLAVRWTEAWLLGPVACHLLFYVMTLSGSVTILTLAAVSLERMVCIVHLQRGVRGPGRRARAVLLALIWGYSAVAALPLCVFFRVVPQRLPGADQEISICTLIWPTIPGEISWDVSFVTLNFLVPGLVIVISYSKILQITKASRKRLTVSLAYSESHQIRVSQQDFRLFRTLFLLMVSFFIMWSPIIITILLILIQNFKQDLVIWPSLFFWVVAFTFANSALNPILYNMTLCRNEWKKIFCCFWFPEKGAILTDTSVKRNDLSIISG
Experimental: CHO-K1 cells expressing Ga16 and hGPR120 were dispensed into each well of a 96-well plate (3×10^4 cells/100 μl/well) and then incubated in 5% CO2, 37° C. incubator for 18 hours. Each well was treated with 100 μl of Calcium 5 dye (Molecular Devices) solution including 2% DMSO and then incubated in 5% CO2, 37° C. incubator for 1 hour. Serially diluted GPR120 agonists were prepared to a final concentration of 0.5% DMSO in a 96-well plate.
Fluorescence increased by the serially diluted GPR120 agonists is calculated as a relative percent (%) value based on the fluorescence represented by the treatment of 1% DMSO only. […] The calculation of measurement was carried out by using statistical software (Prizm).
Activity is denoted based on the following criteria: […]

SMILES | EC50 [nM]
CC(CCOc1c(F)cc(-c2cccnc2SC2CCC2)cc1F)C(=O)O (centres unmarked) [Example 59, 4-[4-(2-cyclobutylsulfanyl-pyridin-3-yl)-2,6-difluoro-phenoxy]-2-methyl-butyric acid] | < 200
CC(C)(C)Sc1ncccc1-c1cc(F)c(OCCCC(=O)O)c(F)c1 [Example 63, 4-[4-(2-tert-butylsulfanyl-pyridin-3-yl)-2,6-difluoro-phenoxy]-butyric acid] | 2000 to 20000
CC(C)(C)COc1ncccc1-c1cc(F)c(OCCCC(=O)O)c(F)c1 [Example 231, 4-{4-[2-(2,2-dimethy-propoxy)-pyridin-3-yl]-2,6-difluoro-phenoxy}-butyric acid] | 200 to 2000
O=C(O)CCCSc1ccc(-c2cccnc2OCC2CCC2)cc1F [Example 246, 4-[4-(2-cyclobutylmethoxy-pyridin-3-yl)-2-fluoro-phenylsulfanyl]-butyric acid] | < 200
O=C(O)CCCCOc1ccc(-c2cccnc2SC2CCC2)cc1F [Example 266, 5-[4-(2-cyclobutylsulfanyl-pyridin-3-yl)-2-fluoro-phenoxy]-pentanoic acid] | < 200
CC(C)Sc1ncccc1-c1cc(F)c(OCCCC(=O)O)c(F)c1 [Example 41, 4-[2,6-difluoro-4-(2-isopropylsulfanyl-pyridin-3-yl)-phenoxy]-butyric acid] | 200 to 2000
O=C(O)CCCSc1ccc(-c2cccnc2SC2CCC2)cc1F [Example 152, 4-[4-(2-cyclobutylsulfanyl-pyridin-3-yl)-2-fluoro-phenylsulfanyl]-butyric acid] | < 200
O=C(O)CCCCSc1ccc(-c2cccnc2OC2CCCC2)cc1 [Example 254, 5-[4-(2-cyclopentyloxy-pyridin-3-yl)-phenylsulfanyl]-pentanoic acid] | < 200
O=C(O)CCCSc1c(F)cc(-c2cccc(OC3CCCC3)n2)cc1F [Example 155, 4-[4-(6-cyclopentyloxy-pyridin-2-yl)-2,6-difluoro-phenylsulfanyl]-bytyric acid] | < 200
O=C(O)CCCCOc1c(F)cc(-c2cccnc2OC2CC2)cc1F [Example 197, 5-[4-(2-cyclopropoxy-pyridin-3-yl)-2,6-difluoro-phenoxy]-pentanoic acid] | 200 to 2000
O=C(O)CCCOc1ccc(-c2cccnc2SCC2CC2)cc1 [Example 49, 4-[4-(2-cyclopropylmethylsulfanyl-pyridin-3-yl)-phenoxy]-butyric acid] | 200 to 2000
O=C(O)CCCOc1c(F)cc(-c2cccnc2C2CCCC2)cc1F [Example 107, 4-[4-(2-cyclopentyl-3-pyridyl)-2,6-difluoro-phenoxy]butanoic acid] | 200 to 2000
O=C(O)CCCSc1ccc(-c2cccnc2OC2CCCC2)cc1 [Example 123, 4-[4-(2-cyclopentyloxy-pyridin-3-yl)-phenylsulfanyl]-butyric acid] | < 200
CC(C)Oc1ncccc1-c1ccc(SCCCC(=O)O)c(F)c1 [Example 171, 4-[2-fluoro-4-(2-isopropoxy-pyridin-3-yl)-phenylsulfanyl]-butyric acid] | < 200
Cc1cnc(OC2CCCC2)c(-c2cc(F)c(SCCCC(=O)O)c(F)c2)c1 [Example 198, 4-[4-(2-cyclopentyloxy-5-methyl-pyridin-3-yl)-2,6-difluoro-phenylsulfanyl]-butyri c acid] | < 200
O=C(O)CCCSc1ccc(-c2cccnc2SC2CCC2)cc1 [Example 153, 4-[4-(2-cyclobutylsulfanyl-pyridin-3-yl)-phenylsulfanyl]-butyric acid] | < 200
O=C(O)CCCOc1c(F)cc(-c2cccc(N3CCCC3)c2)cc1F [Example 92, 4-[2,6-difluoro-4-(3-pyrrolidin-1-ylphenyl)phenoxy]butanoic acid] | < 200
CC(C)Oc1ncccc1-c1cc(F)c(OCCCC(=O)O)c(F)c1 [Example 43, 4-[2,6-difluoro-4-(2-isopropoxy-pyridin-3-yl)-phenoxy]-butyric acid] | 200 to 2000
CC(C)(C)[Si](C)(C)OC1CCC(Oc2ncccc2-c2cc(F)c(OCCCC(=O)O)c(F)c2)C1 (centres unmarked) [Example 226, 4-(4-{2-[3-(tert-butyl-dimethyl-silanyloxy)-cyclopentyloxy]-pyridin-3-yl}-2,6-difluoro-phenoxy)-butyric acid] | > 20000
CC(C)Oc1ccc(F)cc1-c1ccc(SCCCC(=O)O)c(F)c1 [Example 188, 4-(3,5′-difluoro-2′-isopropoxy-biphenyl-4-ylsulfanyl)-butyric acid] | < 200
CC(CCC(=O)O)Sc1c(F)cc(-c2cccnc2SC2CCCC2)cc1F (centres unmarked) [Example 202, 4-[4-(2-cyclopentylsulfanyl-pyridin-3-yl)-2,6-difluoro-phenylsulfanyl]-pentanoic acid] | < 200

SMILES | EC50 [nM]
O=C(O)CCCSc1ccc(-c2cccnc2OC2CCC2)cc1 [Example 143, 4-[4-(2-cyclobutoxy-pyridin-3-yl)-phenylsulfanyl]-butyric acid] | 200 to 2000
O=C(O)CCCSc1ccc(-c2cccnc2SC2CCCC2)cc1F [Example 164, 4-[4-(2-cyclopentylsulfanyl-pyridin-3-yl)-2-fluoro-phenylsulfanyl]-butyric acid] | < 200
O=C(O)CCCCSc1ccc(-c2cccnc2SC2CCCC2)cc1 [Example 258, 5-[4-(2-cyclopentylsulfanyl-pyridin-3-yl)-phenylsulfanyl]-pentanoic acid] | < 200
CC(C)Sc1ncccc1-c1cc(F)c(OCCCCC(=O)O)c(F)c1 [Example 235, 5-[2,6-difluoro-4-(2-isopropylsulfanyl-3-pyridyl)phenoxy]pentanoic acid] | < 200
CC(C)Oc1ncccc1-c1ccc(SC(C)CCC(=O)O)cc1 (centres unmarked) [Example 200, 4-[4-(2-isopropoxy-pyridin-3-yl)-phenylsulfanyl]-pentanoic acid] | 200 to 2000
O=C(O)CCCOc1c(F)cc(-c2cccnc2-n2cccc2)cc1F [Example 109, 4-[2,6-difluoro-4-(2-pyrrol-1-yl-3-pyridyl)phenoxy]butanoic acid] | 200 to 2000
O=C(O)CCCCOc1c(F)cc(-c2cccnc2OCC2CCC2)cc1F [Example 196, 5-[4-(2-cyclobutylmethoxy-pyridin-3-yl)-2,6-difluoro-phenoxy]-pentanoic acid] | < 200
CC(C)Sc1ncccc1-c1ccc(SCCCC(=O)O)c(F)c1 [Example 163, 4-[2-fluoro-4-(2-isopropylsulfanyl-pyridin-3-yl)-phenylsulfanyl]butyric acid] | < 200
O=C(O)CCCOc1c(F)cc(-c2cccnc2OC2CCCCC2)cc1F [Example 228, 4-[4-(2-cyclohexyloxy-pyridin-3-yl)-2,6-difluoro-phenoxy]-butyric acid] | < 200
CC(C)Oc1cccc(-c2cc(F)c(SCC3(CC(=O)O)CC3)c(F)c2)c1 [Example 121, [1-(3,5-difluoro-3′-isopropoxy-biphenyl-4-ylsulfanylmethyl)-cyclopropyl]-acetic acid] | < 200
CCCNc1cccc(-c2cc(F)c(OCCCC(=O)O)c(F)c2)c1 [Example 94, 4-[2,6-difluoro-4-[3-(propylamino)phenyl]phenoxy]butanoic acid] | 200 to 2000
O=C(O)CCCSc1ccc(-c2cccnc2OC2CCOCC2)cc1F [Example 244, 4-{2-fluoro-4-[2-(tetrahydropyran-4-yloxy)-pyridin-3-yl]-phenylsulfanyl}-butyric acid] | 200 to 2000
O=C(O)CCCOc1c(F)cc(-c2cccnc2N2CCCC2)cc1F [Example 72, 4-[2,6-difluoro-4-(2-pyrrolidin-1-yl-3-pyridyl)phenoxy]butanoic Acid] | 200 to 2000
CC(C)Oc1ncccc1-c1cc(F)c(SC(C)CCC(=O)O)c(F)c1 (centres unmarked) [Example 242, 4-[2,6-difluoro-4-(2-isopropoxy-pyridin-3-yl)-phenylsulfanyl]-pentanoic acid] | < 200
CC(CCC(=O)O)Oc1ccc(-c2cccnc2SC2CCC2)cn1 (centres unmarked) [Example 30, 4-[[5-(2-cyclobutylsulfanyl-3-pyridyl)-2-pyridyl]oxy]pentanoic acid] | > 20000
O=C(O)CCCCOc1c(F)cc(-c2cccnc2OC2CCC2)cc1F [Example 214, 5-[4-(2-cyclobutoxy-pyridin-3-yl)-2,6-difluoro-phenoxy]-pentanoic acid] | < 200
O=C(O)CCCOc1cc(F)c(-c2cccnc2SC2CCC2)c(F)c1 [Example 67, 4-[4-(2-cyclobutylsulfanyl-pyridin-3-yl)-3,5-difluoro-phenoxy]-butyric acid] | 200 to 2000
O=C(O)CCCOc1c(F)cc(-c2cccc(C3CCCC3)n2)cc1F [Example 105, 4-[4-(6-cyclopentyl-2-pyridyl)-2,6-difluoro-phenoxy]butanoic acid] | < 200
O=C(O)CCCSc1c(F)cc(-c2cccnc2OC2CCC2)cc1F [Example 144, 4-[4-(2-cyclobutoxy-pyridin-3-yl)-2,6-difluoro-phenylsulfanyl]-butyric acid] | < 200
CCCOc1cccc(-c2ccc(SCCCC(=O)O)cc2)n1 [Example 132, 4-[4-(6-propoxy-pyridin-2-yl)-phenylsulfanyl]-butyric acid] | < 200
